Activity calls are given as the source filed them.
What was measured:
[1] = biological target: T1, Sentrin-specific protease 8 (Homo sapiens, UniProt Q96LD8); assay type: functional
T1 sequence (Q96LD8 whole entry): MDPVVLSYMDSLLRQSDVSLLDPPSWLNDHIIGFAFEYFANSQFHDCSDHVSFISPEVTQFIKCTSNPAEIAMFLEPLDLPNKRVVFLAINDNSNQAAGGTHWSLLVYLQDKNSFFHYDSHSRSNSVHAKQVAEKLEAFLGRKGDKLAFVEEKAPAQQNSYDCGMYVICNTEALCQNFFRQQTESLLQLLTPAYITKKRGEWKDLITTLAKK

[2] = biological target: T1, Sentrin-specific protease 8; assay type: functional; remark: listed apart in the source
Caspase-6 = biological target: T2, Caspase-6 (Homo sapiens, UniProt P55212); experiment: human caspase-6 inhibitors, dose response, biochemical, VEID-R110 fluorescence, cherry-pick (AID 720632)
T2 sequence (P55212 whole entry): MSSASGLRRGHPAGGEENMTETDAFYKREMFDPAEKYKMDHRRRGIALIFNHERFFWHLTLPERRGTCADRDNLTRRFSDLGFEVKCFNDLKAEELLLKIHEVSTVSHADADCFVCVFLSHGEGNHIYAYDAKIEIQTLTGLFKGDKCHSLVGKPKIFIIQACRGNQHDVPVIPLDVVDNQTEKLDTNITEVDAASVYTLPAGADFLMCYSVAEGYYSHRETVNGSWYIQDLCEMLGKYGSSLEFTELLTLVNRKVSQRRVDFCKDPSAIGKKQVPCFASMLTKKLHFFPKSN

[3] = biological target: Peroxisome proliferator-activated receptor gamma/Nuclear receptor coactivator 1 (Homo sapiens, UniProt P37231); assay type: functional;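 also: agonist potency as compounds enhance coactivator SRC-1 recruitment to PPARgamma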
Cytochrome P450 2C9 = Cytochrome P450 2C9 (Homo sapiens, UniProt P11712)
[4] = biological target: Peroxisome proliferator-activated receptor gamma/Nuclear receptor coactivator 3 (Homo sapiens, UniProt P37231); assay type: functional;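 also: agonist potency for raising coactivator recruitment to the receptor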
[5] = biological target: Peroxisome proliferator-activated receptor gamma/Nuclear receptor coactivator 2 (Homo sapiens, UniProt P37231); assay type: functional;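 also: agonist potency for raising coactivator recruitment to the receptor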
Trypsin = Trypsin (Sus scrofa, UniProt P00761); experiment: porcine trypsin inhibitors, dose response, selectivity assay for Rce1 protease inhibitor project, biochemical, quenched peptide fluorescence, cherry-pick (AID 488789)
Cytochrome P450 3A4 = Cytochrome P450 3A4 (Homo sapiens, UniProt P08684);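 also: CYP3A4 tested as one member of a cytochrome P450 panel screen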
[6] = inhibitors of HIV Env-driven cell fusion, dose response, cherry-pick (AID 652057); assay type: functional, cell-based
[7] = off-target signal loss in HeLa-CEM21 co-culture – HeLa F-luc CTL cells, cherry-picked, counter-screen for HIV-1 Env fusion inhibitor project, dose response (AID 652040); assay type: functional, cell-based;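 also: potency for signal decrease marking cytotoxic or nonspecific inhibition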
[8] = inhibitors of clade B AD8 Env fusion, dose response, cell-based, cherry-pick (AID 652062); assay type: functional;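 also: luciferase signal from cell-cell fusion driven by HIV-1 clade B AD8 Env; potency is for inhibitors of fusion seen as a drop in luminescence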
[9] = ZM109 Env clade C HIV-1 fusion inhibitors, dose response, HeLa effector, CEM target cells, luciferase, cherry-pick (AID 652058); assay type: functional, cell-based
[10] = CEM21 lymphoblast cell cytotoxicity, dose response, cytotoxicity control for viral fusion inhibitor project, CellTiter-Glo luminescence, cherry-picked (AID 652042); assay type: functional, cell-based;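 also: potency for signal decrease meaning cytotoxicity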
HEK293 [11] = experiment: cells; details: Homo sapiens
HEK293 [12] = experiment: cells; details: Homo sapiens; remark: listed apart in the source
Cytochrome P450 1A2 = biological target: T3, Cytochrome P450 1A2 (Homo sapiens, UniProt P05177);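 also: PubChem cytochrome P450 panel assay, CYP1A2 panel member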
T3 sequence (P05177 whole entry): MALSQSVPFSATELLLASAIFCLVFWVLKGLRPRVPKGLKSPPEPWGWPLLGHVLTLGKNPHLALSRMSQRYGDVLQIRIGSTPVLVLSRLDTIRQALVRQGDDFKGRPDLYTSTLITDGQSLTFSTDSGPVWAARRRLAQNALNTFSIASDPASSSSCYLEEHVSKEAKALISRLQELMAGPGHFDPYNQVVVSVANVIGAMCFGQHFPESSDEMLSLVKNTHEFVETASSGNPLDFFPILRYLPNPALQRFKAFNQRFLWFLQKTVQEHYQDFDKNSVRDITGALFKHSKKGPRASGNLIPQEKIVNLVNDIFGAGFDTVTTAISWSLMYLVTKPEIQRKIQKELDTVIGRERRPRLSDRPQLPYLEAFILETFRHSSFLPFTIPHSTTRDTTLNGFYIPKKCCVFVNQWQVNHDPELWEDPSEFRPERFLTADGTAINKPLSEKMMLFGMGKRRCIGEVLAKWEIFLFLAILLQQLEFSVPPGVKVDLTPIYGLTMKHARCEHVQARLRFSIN

fMet-Leu-Phe receptor = biological target: T4, fMet-Leu-Phe receptor (Homo sapiens, UniProt P21462); experiment: FPR ligands, dose response (AID 519); assay type: functional
T4 sequence (P21462 whole entry): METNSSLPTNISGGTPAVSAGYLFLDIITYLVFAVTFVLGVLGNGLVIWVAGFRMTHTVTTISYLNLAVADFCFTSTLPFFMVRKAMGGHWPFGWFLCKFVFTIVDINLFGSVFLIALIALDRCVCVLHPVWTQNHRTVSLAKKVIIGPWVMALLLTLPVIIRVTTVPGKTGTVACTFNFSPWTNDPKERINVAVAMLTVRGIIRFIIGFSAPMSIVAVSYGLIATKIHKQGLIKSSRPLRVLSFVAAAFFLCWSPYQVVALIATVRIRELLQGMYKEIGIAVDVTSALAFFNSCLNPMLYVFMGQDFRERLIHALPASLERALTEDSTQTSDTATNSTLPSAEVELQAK

[13] = THP-1 cell cytotoxicity, dose response, cytotoxicity control for non-replicating M. tuberculosis project (AID 489025); assay type: functional
[14] = Vero E6 cell cytotoxicity, dose response, cytotoxicity control for non-replicating M. tuberculosis project, secondary assay (AID 492998); assay type: functional, VeroE6; details: Vero C1008
[15] = cytotoxicity in HEK-293T cells, dose response, cytotoxicity control for TCR NF-kB inhibitor project, luminescence, T-cell screen hits (AID 489026); assay type: functional, cell-based;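 also: cells exposed to compound about 14 hours before the viability readout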
cells = assay type: functional
[16] = P. falciparum Dd2 growth inhibitors, dose response, SYBR Green, cherry-picked samples (AID 1159567); assay type: functional, cell-based
[17] = P. falciparum 3D7-ScDHODH growth inhibitors, dose response, SYBR Green, dry powder samples (AID 1159570); assay type: functional, cell-based;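 also: parasite growth measured after 72 hours of compound exposure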
[18] = P. falciparum ATP4 D1247Y mutant growth inhibitors, dose response, NITD609-resistant line, SYBR Green, dry powder (AID 1159571); assay type: functional, cell-based;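 also: parasites synchronized at ring stage by sorbitol before testing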
[19] = P. falciparum Dd2 growth inhibitors, dose response, SYBR Green, dry powder samples (AID 1159566); assay type: functional, cell-based;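 also: potency for growth inhibition with lower SYBR green DNA signal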
[20] = A cytotoxicity screen of small molecule inhibitors of the PhoP region in Salmonella typhi identified in the primary screen. [Related pubchem assays: 1850, 1864, 1985 ]; assay type: functional

Chain of Peroxisome proliferator-activated receptor gamma/Nuclear receptor coactivator 3 (P37231 whole entry): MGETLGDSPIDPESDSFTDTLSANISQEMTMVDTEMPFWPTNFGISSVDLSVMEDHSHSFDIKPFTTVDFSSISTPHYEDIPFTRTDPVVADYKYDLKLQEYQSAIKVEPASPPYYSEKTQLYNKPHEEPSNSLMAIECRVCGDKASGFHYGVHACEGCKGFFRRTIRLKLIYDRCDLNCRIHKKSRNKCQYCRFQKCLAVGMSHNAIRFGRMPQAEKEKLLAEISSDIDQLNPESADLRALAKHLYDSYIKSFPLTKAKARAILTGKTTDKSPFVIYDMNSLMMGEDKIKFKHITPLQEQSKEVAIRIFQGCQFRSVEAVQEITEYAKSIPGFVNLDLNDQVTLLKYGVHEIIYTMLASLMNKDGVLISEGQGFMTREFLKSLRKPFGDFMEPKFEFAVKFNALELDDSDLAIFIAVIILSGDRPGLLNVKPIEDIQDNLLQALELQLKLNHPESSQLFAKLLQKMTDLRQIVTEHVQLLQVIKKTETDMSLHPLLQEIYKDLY
Chain of Peroxisome proliferator-activated receptor gamma/Nuclear receptor coactivator 3 (Q9Y6Q9 whole entry, further chain): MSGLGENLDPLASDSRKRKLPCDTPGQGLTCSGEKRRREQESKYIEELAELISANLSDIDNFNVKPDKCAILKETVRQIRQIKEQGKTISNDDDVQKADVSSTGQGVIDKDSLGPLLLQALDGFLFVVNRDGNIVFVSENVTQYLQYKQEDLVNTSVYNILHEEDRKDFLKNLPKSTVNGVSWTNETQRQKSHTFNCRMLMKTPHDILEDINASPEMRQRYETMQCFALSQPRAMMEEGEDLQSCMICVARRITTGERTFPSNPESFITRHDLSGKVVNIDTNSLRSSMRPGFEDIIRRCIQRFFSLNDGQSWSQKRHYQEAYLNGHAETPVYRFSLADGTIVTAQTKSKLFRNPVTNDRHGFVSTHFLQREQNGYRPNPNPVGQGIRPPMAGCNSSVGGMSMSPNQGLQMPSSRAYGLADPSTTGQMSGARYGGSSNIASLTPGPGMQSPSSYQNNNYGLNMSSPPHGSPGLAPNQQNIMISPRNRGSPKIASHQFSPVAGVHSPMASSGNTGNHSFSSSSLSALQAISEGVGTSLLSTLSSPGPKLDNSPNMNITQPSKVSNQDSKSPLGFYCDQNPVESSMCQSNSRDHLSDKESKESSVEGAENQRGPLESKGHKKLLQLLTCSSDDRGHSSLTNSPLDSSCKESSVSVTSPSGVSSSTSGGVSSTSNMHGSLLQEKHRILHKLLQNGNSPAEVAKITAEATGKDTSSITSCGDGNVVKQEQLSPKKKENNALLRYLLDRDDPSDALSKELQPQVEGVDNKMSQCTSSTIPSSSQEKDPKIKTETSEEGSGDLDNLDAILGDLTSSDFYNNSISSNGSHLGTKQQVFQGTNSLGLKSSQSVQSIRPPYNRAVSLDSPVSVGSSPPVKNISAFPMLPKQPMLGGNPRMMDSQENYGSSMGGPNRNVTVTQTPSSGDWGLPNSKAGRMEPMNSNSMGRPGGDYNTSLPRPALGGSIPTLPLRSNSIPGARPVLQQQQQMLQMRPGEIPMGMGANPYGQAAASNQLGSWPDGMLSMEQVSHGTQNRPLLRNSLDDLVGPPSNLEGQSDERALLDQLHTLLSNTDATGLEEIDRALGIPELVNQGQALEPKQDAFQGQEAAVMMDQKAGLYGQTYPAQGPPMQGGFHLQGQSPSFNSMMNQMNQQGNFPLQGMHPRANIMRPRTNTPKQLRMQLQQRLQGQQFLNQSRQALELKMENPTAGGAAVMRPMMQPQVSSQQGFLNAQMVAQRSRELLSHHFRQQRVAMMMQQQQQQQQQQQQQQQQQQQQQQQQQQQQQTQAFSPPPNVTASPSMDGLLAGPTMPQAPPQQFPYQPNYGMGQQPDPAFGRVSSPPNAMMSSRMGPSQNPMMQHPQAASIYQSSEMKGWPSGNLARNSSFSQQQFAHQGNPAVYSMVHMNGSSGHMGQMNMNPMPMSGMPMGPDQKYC
Chain of Peroxisome proliferator-activated receptor gamma/Nuclear receptor coactivator 2 (P37231 whole entry): as the sequence (P37231 whole entry) above
Chain of Peroxisome proliferator-activated receptor gamma/Nuclear receptor coactivator 2 (Q15596 whole entry, further chain): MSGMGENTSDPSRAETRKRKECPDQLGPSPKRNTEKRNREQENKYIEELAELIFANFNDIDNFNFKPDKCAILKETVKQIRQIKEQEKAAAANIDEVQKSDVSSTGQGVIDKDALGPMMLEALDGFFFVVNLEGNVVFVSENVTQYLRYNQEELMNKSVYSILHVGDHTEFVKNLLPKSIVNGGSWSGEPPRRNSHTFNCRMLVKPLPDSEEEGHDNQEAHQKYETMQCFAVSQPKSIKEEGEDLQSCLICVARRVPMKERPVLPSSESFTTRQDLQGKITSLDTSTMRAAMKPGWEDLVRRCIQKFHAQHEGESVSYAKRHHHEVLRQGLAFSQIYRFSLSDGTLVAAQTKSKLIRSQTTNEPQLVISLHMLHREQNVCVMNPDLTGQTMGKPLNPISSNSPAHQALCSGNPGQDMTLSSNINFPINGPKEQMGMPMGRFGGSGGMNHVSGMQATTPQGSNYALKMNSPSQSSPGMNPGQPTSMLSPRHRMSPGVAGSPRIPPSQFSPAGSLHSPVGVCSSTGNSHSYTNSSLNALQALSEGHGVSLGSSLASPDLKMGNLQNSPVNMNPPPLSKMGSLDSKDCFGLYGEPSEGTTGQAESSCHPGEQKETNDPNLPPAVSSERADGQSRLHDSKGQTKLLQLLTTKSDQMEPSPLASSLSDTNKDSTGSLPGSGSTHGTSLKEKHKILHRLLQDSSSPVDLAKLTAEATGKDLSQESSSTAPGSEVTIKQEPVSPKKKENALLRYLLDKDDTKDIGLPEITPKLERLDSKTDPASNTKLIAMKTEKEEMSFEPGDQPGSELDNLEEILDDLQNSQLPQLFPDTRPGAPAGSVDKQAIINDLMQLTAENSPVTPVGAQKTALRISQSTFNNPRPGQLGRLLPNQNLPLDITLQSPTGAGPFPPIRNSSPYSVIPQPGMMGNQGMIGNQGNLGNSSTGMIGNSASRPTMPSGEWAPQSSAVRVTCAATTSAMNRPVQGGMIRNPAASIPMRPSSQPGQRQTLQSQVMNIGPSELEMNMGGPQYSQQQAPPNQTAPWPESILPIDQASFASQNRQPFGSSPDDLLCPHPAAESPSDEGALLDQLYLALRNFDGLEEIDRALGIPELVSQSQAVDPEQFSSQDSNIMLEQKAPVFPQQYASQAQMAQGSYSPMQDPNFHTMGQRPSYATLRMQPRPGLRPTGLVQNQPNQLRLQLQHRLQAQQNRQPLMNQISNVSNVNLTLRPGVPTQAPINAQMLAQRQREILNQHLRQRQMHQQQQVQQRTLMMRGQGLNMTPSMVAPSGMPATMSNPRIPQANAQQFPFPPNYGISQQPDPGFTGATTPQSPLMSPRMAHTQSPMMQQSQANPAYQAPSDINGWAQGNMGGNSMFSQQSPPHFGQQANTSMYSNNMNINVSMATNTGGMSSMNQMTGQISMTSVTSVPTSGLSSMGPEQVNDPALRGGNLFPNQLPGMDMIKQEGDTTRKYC
Chain of Trypsin (P00761 whole entry): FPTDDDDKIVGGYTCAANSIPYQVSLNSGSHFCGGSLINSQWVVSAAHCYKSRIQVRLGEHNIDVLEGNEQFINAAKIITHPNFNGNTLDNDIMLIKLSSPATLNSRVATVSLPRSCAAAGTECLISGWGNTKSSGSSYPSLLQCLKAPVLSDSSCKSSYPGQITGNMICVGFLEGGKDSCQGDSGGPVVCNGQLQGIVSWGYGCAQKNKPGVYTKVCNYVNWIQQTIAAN
Chain of Cytochrome P450 2C9 (P11712 whole entry): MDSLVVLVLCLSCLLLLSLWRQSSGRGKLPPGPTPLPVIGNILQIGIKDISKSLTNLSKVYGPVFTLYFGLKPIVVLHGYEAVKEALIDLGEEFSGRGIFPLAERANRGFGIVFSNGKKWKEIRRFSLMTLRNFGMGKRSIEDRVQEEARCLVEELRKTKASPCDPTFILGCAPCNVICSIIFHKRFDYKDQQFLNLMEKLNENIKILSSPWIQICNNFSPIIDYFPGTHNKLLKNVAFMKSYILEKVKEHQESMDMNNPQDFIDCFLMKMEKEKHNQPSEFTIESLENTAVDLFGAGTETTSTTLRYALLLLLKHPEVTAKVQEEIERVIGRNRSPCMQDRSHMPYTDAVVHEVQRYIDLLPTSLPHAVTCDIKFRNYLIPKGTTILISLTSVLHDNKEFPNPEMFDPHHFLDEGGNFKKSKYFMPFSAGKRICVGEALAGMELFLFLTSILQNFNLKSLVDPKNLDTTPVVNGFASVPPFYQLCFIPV

## O=C(COC(=O)c1ccc([N+](=O)[O-])o1)NC1CCS(=O)(=O)C1 (configuration not stated)
[1]
  IC50: 9.9 µM (active)
[2]
  IC50: 8.96 µM (active)
Caspase-6
  AC50: 39.7 µM (active)

## O=C1Cc2ccccc2C(=O)N1Cc1cccc(Cl)c1
[1]
  IC50: > 100 µM (inactive)
[2]
  IC50: 0.528 µM (active)
Caspase-6
  AC50: 13 µM (active)

## O=S(=O)(c1ccccc1)c1cnn2c(C(F)(F)F)cc(-c3ccc(F)cc3)nc12
[3]
  EC50: > 79.4 µM (not active)
Cytochrome P450 2C9
  AC50: inconclusive
[4]
  EC50: > 79.4 µM (not active)
[5]
  EC50: > 79.4 µM (not active)
Trypsin
  AC50: 20.2 µM (active)
Cytochrome P450 3A4
  AC50: 3.16 µM (inconclusive)

## CCN(CC(O)c1cccc(O)c1)C(=O)C12CC3CC(CC(C3)C1)C2 (configuration not stated)
[6]
  AC50: 0.33 µM (active)
[7]
  AC50: 0.619 µM (active)
[8]
  AC50: 3 µM (active)
[9]
  AC50: 0.415 µM (active)
[10]
  AC50: 46.4 µM (active)

## CCCCNC(=O)CSc1nc2ccccc2c(=O)n1Cc1ccc2c(c1)OCO2
[3]
  EC50: > 79.4 µM (not active)
[4]
  EC50: > 79.4 µM (not active)
[5]
  EC50: > 79.4 µM (not active)

## COc1cccc(Nc2nc(C(N)CCc3ccccc3)cs2)n1 (configuration not stated)
[6]
  AC50: 1.96 µM (active)
[7]
  AC50: 3.37 µM (active)
[8]
  AC50: 3.36 µM (active)
[9]
  AC50: 3.98 µM (active)
[10]
  AC50: 17.1 µM (active)
HEK293 [11]
  EC50: > 59.6 µM (inactive)
HEK293 [12]
  EC50: > 59.6 µM (inactive)

## COc1cccc(OC)c1/C(O)=C(\C#N)c1nc2ccccc2[nH]1
Cytochrome P450 1A2
  AC50: 12.6 µM (inconclusive)
fMet-Leu-Phe receptor
  Ki: > 66.7 µM (inactive)

## Cc1ccc(/C=N/NC(=O)C2COc3ccccc3O2)s1 (configuration not stated)
[13]
  CC50: 4.18 µM (active)
[14]
  CC50: 8.33 µM (active)
[15]
  IC50: > 80 µM (inactive)
cells
  IC50: 7.88 µM (active)

## Brc1ccc(/C=N/c2ccc(Nc3ccccc3)cc2)s1
[3]
  EC50: > 79.4 µM (not active)
[4]
  EC50: > 79.4 µM (not active)
[5]
  EC50: > 79.4 µM (not active)

## O=C(Nc1ccccc1F)N1CCCCN2[C@H](CO)[C@H](c3ccc(C#Cc4cccnc4)cc3)[C@@H]2C1
[16]
  AC50: 0.86 µM (active)
[17]
  AC50: 0.452 µM (active)
[18]
  AC50: 0.504 µM (active)
[19]
  AC50: 0.507 µM (active)

## N[C@@H](Cc1ccc(O)c(I)c1)C(=O)O [IOTYROSINE]
fMet-Leu-Phe receptor
  Ki: > 66.7 µM (inactive)

## CC[N+](C)(CC)CCC[n+]1c(-c2ccccc2)c2cc(N)ccc2c2ccc(N)cc21 [PROPIDIUM]
[20]
  EC50: > 50 µM (active)

From ChEMBL document CHEMBL1201862, “PubChem BioAssay data set” (2004)
